Reference: patent publication US9745321B2, “Fused pyrimidine compound, intermediate, preparation method therefor, and composition and application thereof” (SHANGHAI YINGLI PHARMACEUTICAL CO., LTD, priority 2013, dated 2017)
pIC50: −log10 of the molar value.

Assays:
PI3Kγ = PI3Kγ (Homo sapiens (Human), UniProt P48736); assay: PI3Kγ enzyme activity inhibition IC50 evaluation assay; assay type: biochemical; settings: ratio PI3Kγ vs PI3Kδ
Method: (§1) PI3Kα, PI3Kδ, PI3Kβ and PI3Kγ Enzyme Activity Inhibition IC50 Evaluation Assay
(§2) • 1. Buffer preparation: 50 mM HEPES, pH 7.5, 3 mM MgCl2, 1 mM EGTA, 100 mM NaCl, 0.03% CHAPS. • 2. Compound was formulated in 100% DMSO in a concentration gradient, and added to a 384-well plate to a final DMSO concentration of 1%. • 3. PI3Kα, PI3Kδ, PI3Kβ and PI3Kγ enzymes were diluted to an optimum concentration with the following buffer: 50 mM HEPES, pH 7.5, 3 mM MgCl2, 1 mM EGTA, 100 mM NaCl, 0.03% CHAPS, 2 mM DTT, and transferred to a 384-well plate and incubated with the compound for a certain time. • 4. Substrate was diluted to an optimum concentration with the following buffer: 50 mM HEPES, pH 7.5, 3 mM MgCl2, 1 mM EGTA, 100 mM NaCl, 0.03% CHAPS, 2 mM DTT, 50 μM PIP2, 25 μM ATP; then added to a 384-well plate to initiate the reaction, and for PI3Kα, PI3Kβ and PI3Kγ at room temperature reacted for 1 hr, for PI3Kδ at room temperature reacted for 2 hrs. For PI3Kβ and PI3Kγ, it was still necessary to further add 10 μL ADP-Glo Detection Reagent, and then equilibrated at room temperature for 30 minutes. • 5. Read Luminescense with FlexStation, and calculate the inhibition rate as the average of two tests.

PI3Kβ = PI3Kβ (Homo sapiens (Human), UniProt P42338); assay: PI3Kβ enzyme activity inhibition IC50 evaluation assay; assay type: biochemical; settings: ratio PI3Kβ vs PI3Kδ
Sequence of PI3Kβ (P42338 whole entry): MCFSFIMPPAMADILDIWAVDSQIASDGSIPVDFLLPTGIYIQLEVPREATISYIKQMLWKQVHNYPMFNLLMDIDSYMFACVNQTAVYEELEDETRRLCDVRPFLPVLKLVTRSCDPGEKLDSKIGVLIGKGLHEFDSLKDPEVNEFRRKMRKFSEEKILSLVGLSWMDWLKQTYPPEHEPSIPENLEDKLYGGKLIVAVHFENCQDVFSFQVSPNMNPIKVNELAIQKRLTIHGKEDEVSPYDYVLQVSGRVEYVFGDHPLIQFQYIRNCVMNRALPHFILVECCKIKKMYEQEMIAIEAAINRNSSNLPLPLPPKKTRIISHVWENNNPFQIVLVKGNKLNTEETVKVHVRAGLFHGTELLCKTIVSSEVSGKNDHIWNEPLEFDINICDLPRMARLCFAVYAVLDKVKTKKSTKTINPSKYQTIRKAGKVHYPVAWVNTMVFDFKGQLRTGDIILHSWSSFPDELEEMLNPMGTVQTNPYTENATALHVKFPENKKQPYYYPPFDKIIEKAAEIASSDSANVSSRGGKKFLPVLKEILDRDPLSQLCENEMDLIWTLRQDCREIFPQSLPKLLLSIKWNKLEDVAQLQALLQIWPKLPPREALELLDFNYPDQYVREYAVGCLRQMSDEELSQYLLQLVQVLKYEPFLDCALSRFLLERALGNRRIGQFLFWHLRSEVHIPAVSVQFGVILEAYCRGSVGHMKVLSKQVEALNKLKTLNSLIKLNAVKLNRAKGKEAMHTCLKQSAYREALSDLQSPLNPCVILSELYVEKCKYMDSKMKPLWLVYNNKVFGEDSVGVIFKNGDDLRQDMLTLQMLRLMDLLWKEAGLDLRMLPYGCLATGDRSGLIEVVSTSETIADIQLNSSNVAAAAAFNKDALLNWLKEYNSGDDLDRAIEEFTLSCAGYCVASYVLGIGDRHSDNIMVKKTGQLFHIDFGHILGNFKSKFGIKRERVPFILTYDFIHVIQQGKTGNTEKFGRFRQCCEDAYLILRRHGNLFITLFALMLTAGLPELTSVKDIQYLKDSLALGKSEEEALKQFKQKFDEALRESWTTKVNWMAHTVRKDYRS
Sequence of PI3Kβ (P27986 whole entry partner): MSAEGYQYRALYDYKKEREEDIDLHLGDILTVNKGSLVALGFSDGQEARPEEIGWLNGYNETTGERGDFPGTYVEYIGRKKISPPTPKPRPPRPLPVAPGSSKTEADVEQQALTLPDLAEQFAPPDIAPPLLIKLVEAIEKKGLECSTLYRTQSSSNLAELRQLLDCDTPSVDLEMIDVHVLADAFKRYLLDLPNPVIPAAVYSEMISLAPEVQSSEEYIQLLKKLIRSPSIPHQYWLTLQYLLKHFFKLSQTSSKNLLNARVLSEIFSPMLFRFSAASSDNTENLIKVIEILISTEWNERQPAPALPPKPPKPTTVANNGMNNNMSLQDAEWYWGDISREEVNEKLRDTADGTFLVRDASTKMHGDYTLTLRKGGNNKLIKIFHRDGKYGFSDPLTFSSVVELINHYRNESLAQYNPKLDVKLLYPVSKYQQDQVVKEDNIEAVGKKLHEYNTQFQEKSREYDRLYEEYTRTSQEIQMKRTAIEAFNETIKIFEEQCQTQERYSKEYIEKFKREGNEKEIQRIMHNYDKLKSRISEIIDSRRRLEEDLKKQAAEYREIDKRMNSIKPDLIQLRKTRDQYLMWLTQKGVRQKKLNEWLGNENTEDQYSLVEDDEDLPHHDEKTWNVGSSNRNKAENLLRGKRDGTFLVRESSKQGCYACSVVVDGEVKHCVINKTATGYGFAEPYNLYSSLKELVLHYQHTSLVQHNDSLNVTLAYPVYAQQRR
Method: as §1, §2

Raji cells = assay: Inhibition of TNF-α generation of human Raji cell induced by human IgM; assay type: cell-based; settings: 10 μg/ml IgM stimulation, 24 hrs, ELISA
Method: Screening Test for a Drug on Inhibiting TNF-α Generation of Human Raji Cell Induced by Human IgM
• 1. Raji cell lines (source of human Burkitt's lymphoma) were employed. • 2. 1×10^5/well Raji cells were plated onto a 96-well cell culture plate. • 3. Compounds to be screened were diluted to the corresponding test concentrations and added into the cell culture system 30 minutes before IgM stimulation. • 4. 10 μg/ml IgM monoclonal antibody was added into the cell culture system to stimulate the cells generating TNF-α. • 5. 24 hrs later, the amount of TNF-α generated by the cell system was measured by ELISA method. • 6.

PI3Kδ = PI3Kδ (Homo sapiens (Human), UniProt O00329); assay: PI3Kδ enzyme activity inhibition IC50 evaluation assay; assay type: biochemical; settings: luminescence, 25 μM ATP, 50 μM PIP2, 2 hrs room temperature
Sequence of PI3Kδ (O00329 whole entry): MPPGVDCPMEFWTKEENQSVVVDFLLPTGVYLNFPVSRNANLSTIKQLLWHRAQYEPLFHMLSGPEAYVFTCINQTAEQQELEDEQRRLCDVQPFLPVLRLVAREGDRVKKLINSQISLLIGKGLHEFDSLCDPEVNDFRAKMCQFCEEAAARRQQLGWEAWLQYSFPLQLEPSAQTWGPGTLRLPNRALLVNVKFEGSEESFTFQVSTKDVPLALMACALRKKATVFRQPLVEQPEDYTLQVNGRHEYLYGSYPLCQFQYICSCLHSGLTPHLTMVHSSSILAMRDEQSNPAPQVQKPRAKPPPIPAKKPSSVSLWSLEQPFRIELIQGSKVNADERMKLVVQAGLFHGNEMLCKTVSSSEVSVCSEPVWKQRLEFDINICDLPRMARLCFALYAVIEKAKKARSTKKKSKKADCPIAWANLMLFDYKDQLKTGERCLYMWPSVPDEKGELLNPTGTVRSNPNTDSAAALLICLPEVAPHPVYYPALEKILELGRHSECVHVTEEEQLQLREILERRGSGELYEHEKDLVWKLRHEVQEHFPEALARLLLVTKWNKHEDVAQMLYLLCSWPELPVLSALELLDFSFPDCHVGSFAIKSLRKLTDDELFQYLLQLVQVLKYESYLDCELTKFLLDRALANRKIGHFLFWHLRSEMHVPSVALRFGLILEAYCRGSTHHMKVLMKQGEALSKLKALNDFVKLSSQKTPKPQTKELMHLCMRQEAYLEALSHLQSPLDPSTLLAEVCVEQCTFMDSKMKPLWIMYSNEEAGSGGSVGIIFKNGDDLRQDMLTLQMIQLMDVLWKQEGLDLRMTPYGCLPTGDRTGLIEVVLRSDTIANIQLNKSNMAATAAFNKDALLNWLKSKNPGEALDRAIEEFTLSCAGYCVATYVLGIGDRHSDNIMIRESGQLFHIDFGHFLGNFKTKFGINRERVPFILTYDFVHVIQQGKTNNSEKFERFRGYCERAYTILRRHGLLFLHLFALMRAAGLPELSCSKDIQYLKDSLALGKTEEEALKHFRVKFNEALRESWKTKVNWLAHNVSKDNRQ
Sequence of PI3Kδ (P27986 whole entry partner): as the sequence (P27986 whole entry partner) above
Summary of the method: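 Enzyme was preincubated with compound dilutions at 1% DMSO final in 50 mM HEPES pH 7.5, 3 mM MgCl2, 1 mM EGTA, 100 mM NaCl, 0.03% CHAPS, 2 mM DTT. Activity was read by luminescence, and inhibition rate is the mean of two tests.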

PI3Kα = PI3Kα (Homo sapiens (Human), UniProt P42336); assay: PI3Kα enzyme activity inhibition IC50 evaluation assay; assay type: biochemical; settings: ratio PI3Kα vs PI3Kδ
Sequence of PI3Kα (P42336 whole entry): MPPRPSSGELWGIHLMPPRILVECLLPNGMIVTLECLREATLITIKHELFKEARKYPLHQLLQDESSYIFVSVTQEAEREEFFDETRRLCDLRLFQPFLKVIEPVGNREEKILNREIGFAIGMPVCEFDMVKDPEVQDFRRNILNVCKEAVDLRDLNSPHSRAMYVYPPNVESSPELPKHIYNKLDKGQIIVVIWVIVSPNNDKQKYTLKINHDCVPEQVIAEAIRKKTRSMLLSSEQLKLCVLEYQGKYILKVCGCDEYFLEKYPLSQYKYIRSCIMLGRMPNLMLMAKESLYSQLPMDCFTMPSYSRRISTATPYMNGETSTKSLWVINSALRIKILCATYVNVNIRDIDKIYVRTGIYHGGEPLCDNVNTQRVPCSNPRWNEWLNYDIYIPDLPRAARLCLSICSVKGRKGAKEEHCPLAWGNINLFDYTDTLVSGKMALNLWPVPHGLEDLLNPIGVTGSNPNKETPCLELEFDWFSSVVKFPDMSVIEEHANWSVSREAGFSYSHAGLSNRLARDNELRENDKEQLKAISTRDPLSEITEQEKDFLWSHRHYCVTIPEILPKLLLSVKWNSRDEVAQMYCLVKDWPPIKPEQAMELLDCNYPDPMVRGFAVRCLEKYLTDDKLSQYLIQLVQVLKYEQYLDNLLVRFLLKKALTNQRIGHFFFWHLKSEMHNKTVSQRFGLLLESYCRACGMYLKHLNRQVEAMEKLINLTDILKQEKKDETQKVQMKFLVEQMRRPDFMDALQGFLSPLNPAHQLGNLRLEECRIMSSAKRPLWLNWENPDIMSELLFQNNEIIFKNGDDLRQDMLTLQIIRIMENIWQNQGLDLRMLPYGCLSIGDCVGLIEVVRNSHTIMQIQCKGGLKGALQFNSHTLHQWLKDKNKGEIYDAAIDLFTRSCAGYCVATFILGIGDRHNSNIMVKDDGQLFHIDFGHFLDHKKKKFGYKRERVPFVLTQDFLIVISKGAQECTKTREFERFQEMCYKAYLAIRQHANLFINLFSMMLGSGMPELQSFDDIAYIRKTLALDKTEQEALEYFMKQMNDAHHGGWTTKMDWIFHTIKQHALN
Sequence of PI3Kα (P27986 whole entry partner): as the sequence (P27986 whole entry partner) above
Summary of the method: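 Enzymes were preincubated with compound (1% DMSO final) in HEPES pH 7.5 buffer with MgCl2, EGTA, NaCl, CHAPS and 2 mM DTT. Reaction started with 50 μM PIP2 and 25 μM ATP, 1 h at room temperature. Luminescence was read, with ADP-Glo detection reagent added for β and γ; inhibition is the mean of two tests.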

Sequence of PI3Kγ (P48736 whole entry): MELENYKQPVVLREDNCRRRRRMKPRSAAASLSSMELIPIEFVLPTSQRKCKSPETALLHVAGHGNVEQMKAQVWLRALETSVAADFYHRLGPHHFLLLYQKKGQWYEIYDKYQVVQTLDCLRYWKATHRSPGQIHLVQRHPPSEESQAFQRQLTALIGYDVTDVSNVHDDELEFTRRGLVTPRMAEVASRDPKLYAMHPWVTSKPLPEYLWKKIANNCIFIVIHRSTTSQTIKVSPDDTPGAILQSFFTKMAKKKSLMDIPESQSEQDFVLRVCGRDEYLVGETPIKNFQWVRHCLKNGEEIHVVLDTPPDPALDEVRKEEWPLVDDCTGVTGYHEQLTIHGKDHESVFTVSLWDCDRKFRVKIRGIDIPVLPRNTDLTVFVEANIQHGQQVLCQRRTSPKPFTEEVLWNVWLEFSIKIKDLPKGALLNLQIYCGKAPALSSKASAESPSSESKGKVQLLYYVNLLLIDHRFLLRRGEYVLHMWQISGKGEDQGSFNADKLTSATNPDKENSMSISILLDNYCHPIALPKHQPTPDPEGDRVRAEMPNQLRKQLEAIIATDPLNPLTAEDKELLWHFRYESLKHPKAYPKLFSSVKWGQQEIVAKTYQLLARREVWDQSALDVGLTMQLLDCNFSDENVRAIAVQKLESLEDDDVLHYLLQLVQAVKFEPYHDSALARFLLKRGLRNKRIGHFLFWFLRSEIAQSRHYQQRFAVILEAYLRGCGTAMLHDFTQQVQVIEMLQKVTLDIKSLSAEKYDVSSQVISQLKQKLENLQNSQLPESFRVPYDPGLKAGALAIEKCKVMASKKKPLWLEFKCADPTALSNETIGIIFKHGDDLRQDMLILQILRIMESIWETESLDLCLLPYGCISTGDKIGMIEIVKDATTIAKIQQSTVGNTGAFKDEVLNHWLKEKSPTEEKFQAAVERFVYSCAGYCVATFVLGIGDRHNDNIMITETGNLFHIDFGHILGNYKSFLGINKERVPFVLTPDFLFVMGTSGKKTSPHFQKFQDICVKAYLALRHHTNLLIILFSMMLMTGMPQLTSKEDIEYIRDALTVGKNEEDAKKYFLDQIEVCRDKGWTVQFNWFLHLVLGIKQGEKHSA

Row | γ/δ selectivity (PI3Kγ) | β/δ selectivity (PI3Kβ) | pIC50 (Raji cells) | pIC50 (PI3Kδ) | α/δ selectivity (PI3Kα) | Compound
1 | 587 | 110 | 8.15 | 8.33 | 280 | COc1ncc(-c2nc(N3CCOCC3)nc3c(CN4CCC(N5CCC5)CC4)c(C)sc23)cc1NS(C)(=O)=O [Compound 148]
2 | 221 | 15 | 8.07 | 8.03 | 39 | COc1ncc(-c2nc(N3CCOCC3)nc3c(CN4CCC(N5CCCCC5=O)CC4)c(C)sc23)cc1NS(C)(=O)=O [Compound 150]
3 | >909 | 418 | 9.22 | 7.96 | 42 | COc1ncc(-c2nc(N3CCOCC3)nc3c(OC4CCC(N5CCCCC5)CC4)c(C)sc23)cc1NS(C)(=O)=O (stereo not drawn) [Compound 153]
